Measurements reported in US20070207223A1, “Means for improving cardiovascular health” (priority 2006, published 2007).
“Also recorded” adds a separate entry of the source.

Tests used:
[1] = regular dietary intake; cited from earlier work
[2] = RBC omega-3 fatty acid content, dietary study in beagle dogs; assay type: in vivo
Procedure: (§1) The test article, SDA, was administered in the diet once daily, 7 days per week, for up to 90 days to three groups (Groups 1-3) of male beagle dogs. The reference article, eicosapentaenoic acid (EPA), was administered to Group 4 on the same dosing regimen. Both SDA and EPA were supplied as ethyl esters. The control article, food grade high oleic sunflower oil (SFO), was administered to Group 5 on the same dosing regimen. SFO was also added to food of groups 1 through 4 so that all animals received a similar volume of oil per kg body wt. A dietary supplement, vitamin E, was added to all diets. Dosage levels were 21.4, 64.2 and 192.9 mg/kg/day SDA, 42.9 mg/kg/day EPA and were calculated for each animal based on body weight for Groups 1, 2, 3 and 4, respectively. Each group consisted of 15 males. Five animals/group were scheduled for each interim necropsy (study weeks 4 and 8) and the primary necropsy at the end of the 12-week treatment period. In addition, five animals were euthanized prior to randomization and test article administration to establish baseline levels of fatty acids (pretest necropsy).
(§2) The animals were observed twice daily for mortality and moribundity. Clinical examinations were performed daily, and detailed physical examinations were performed weekly. Individual body weights were recorded weekly. Food consumption was recorded daily and reported weekly. Blood samples for analysis of fatty acids were collected from five dogs scheduled for the pretest necropsy and from all surviving dogs during study weeks 2, 4, 8 and 12. All animals were euthanized, and in addition to liver and kidney sections, two samples of heart tissue were collected, one set was analyzed for fatty acid analysis and the other sample was retained for microscopic analysis at the scheduled necropsies. Sections from the heart, liver and kidney were examined microscopically from five animals during pretest and from 5 animals/group (Groups 3-5 only) at the study week 12 necropsy.
Blood samples were collected from the 5 dogs selected for the pretest necropsy and from all surviving dogs at study weeks 2, 4, 8 and 12. The samples were collected from the dog's jugular vein into tubes containing EDTA prior to the feeding/dosing regimen. The red blood cells (RBC) were separated from the plasma by centrifugation at 1500× for approximately 20 minutes at 4° C. The plasma was transferred to polypropylene tubes and stored at approximately −70° C. for future analysis. The buffy coat was removed from the packed RBCs, and the RBCs were divided approximately equally into two tubes.
(§3) Tissue preparation, lipid extraction and analysis were conducted according to a conventional protocol. Briefly, heart tissues were first lyophilized overnight, and then pulverized by grinding between two ground glass slides. The ground tissue was suspended in saline and subjected to 10-15 seconds of sonication. Lipids were extracted with methanol and methylene chloride, and the solvent evaporated under nitrogen. Thawed RBCs were extracted with isopropanol and hexane. After centrifugation of the stroma, the solvent was transferred and evaporated under nitrogen. Phospholipids extracted from heart and RBC samples were methylated with BF3, at 100° C. for 10 minutes. These conditions transmethylate glycerophospholipid FAs but not sphingolipid FAs. After heating, all samples were extracted with hexane and water. The hexane layer was removed, dried under nitrogen, and the FA methyl esters reconstituted in hexane for analysis by flame ionization gas chromatography. FAs were identified by comparison with known standards, and FA compositions were reported as weight percent of total FA.

[3] = Heart tissue omega-3 fatty acid content, dietary study in beagle dogs; assay type: in vivo
Procedure: as §1, §2, §3
Animals were euthanized by an intravenous injection of sodium pentobarbital followed by exsanguinations. Two samples of approximately 200 mg of heart tissue from the left ventricle were collected, rinsed in chilled saline, wrapped in aluminum foil, flash frozen in liquid nitrogen, and stored at approximately −70° C. The samples were analyzed for pathologic abnormalities.

[4] = dog, in vivo
Procedure: as §1, with “Five animals/group were scheduled for each interim necropsy (study weeks 4 and 8) and the primary necropsy at the end of the 12-week treatment period. In addition, five animals were euthanized prior to randomization and test article administration to establish baseline levels of fatty acids (pretest necropsy).” left out
The animals were observed twice daily for mortality and moribundity. […] Individual body weights were recorded weekly. Food consumption was recorded daily and reported weekly. […] All animals were euthanized, and in addition to liver and kidney sections, two samples of heart tissue were collected, one set was analyzed for fatty acid analysis and the other sample was retained for microscopic analysis at the scheduled necropsies. […]
Animals were euthanized by an intravenous injection of sodium pentobarbital followed by exsanguinations. […] The samples were analyzed for pathologic abnormalities. […]

[5] = dietary supplementation, human diet; phospholipid fractions; cited from earlier work

For `CC/C=C\C/C=C\C/C=C\CCCCCCCC(=O)O` [ALA, α-linolenic acid], the “Tissue concentrations of EPA and DHA” value [1] is given as “proven ineffective in raising the tissue concentrations of EPA and DHA”.

In the case of `CC/C=C\C/C=C\C/C=C\C/C=C\C/C=C\CCCC(=O)O` [EPA, eicosapentaenoic acid, reference compound], the “RBC omega-3 fatty acid content relative to SFO-treated dogs (negative control)” value ([2]; 42.9 mg/kg/day EPA in diet, between study weeks 2 and 12) is reported as 3-10 fold and the “Heart tissue omega-3 fatty acid content relative to sunflower oil-treated dogs (negative control)” value ([3]; 42.9 mg/kg/day EPA in diet, between study weeks 4 and 12) is reported as 3-5 fold.

For `CC/C=C\C/C=C\C/C=C\C/C=C\CCCCC(=O)O` [SDA, Stearidonic acid], the “Total omega-3 fatty acid content (RBC) over pretreatment levels” value ([2]; 21.4 mg/kg/day SDA, as early as study week 2) was “overall increase”, the “Time of peak of total omega-3 fatty acid content (RBC)” value ([2]; 21.4 mg/kg/day SDA, decreasing thereafter) was “approximately 4 weeks” and the “Total omega-3 fatty acid content (RBC) over pretreatment” value ([2]; 192.9 mg/kg/day SDA (Group 3), elevated from study week 2 through 12 weeks) was “approximately 2 fold”. For the same molecule, the “Overall increase in omega-3 fatty acid content (RBC) over time compared with the EPA group” value ([2]; 192.9 mg/kg/day SDA vs 42.9 mg/kg/day EPA, slightly lower) was “comparable to the increase seen in the 42.9 mg/kg/day EPA group”, the “Omega-3 fatty acid content in red blood cells (RBC)” value ([2]; SDA 21.4, 64.2 and 192.9 mg/kg/day in diet, study weeks 2, 4, 8 and 12) was “increased in a dose-dependent manner” and the “Heart omega-3 fatty acid content over pretreatment levels” value ([3]; 21.4 mg/kg/day SDA, study week 4) was “negligible increase”. The “Heart omega-3 fatty acid content, peak over pretreatment levels” value ([3]; 21.4 mg/kg/day SDA, study week 8) was “approximately 1.5 fold”, the “Heart omega-3 fatty acid content over pretreatment levels” value ([3]; 192.9 mg/kg/day SDA, study week 12) was “approximately 3 fold” and the “Omega-3 fatty acid content in the heart tissue” value ([3]; SDA 21.4, 64.2 and 192.9 mg/kg/day in diet, study weeks 4, 8 and 12) was “increased in a dose-dependent manner”. The “Conversion into EPA and DPA and incorporation into cardiac and red blood cell membranes” value ([3]; SDA via the diet daily for 12 consecutive weeks, male beagle dogs) was “effectively converted into EPA and DPA”, the “Microscopic changes to heart, liver and kidney tissues” value [4] was “did not cause any significant microscopic changes” and the “Microscopic findings (heart, liver, kidney)” value [4] was “no microscopic findings attributed to test article administration”. For the same molecule, the “Concentrations of EPA and DPA in erythrocytes and plasma” value [5] was “increase the concentrations of EPA and DPA; also recorded: effectively converted into EPA and DPA”.
